Reference: US20250035641A1, “COMPOSITIONS AND METHODS RELATED TO PROTEIN LABELING” (The Chinese University of Hong Kong, priority 2023, published 2025)

Experiments:
Type in all cases: cell-based
HTN-CK2α [1] = biological target: T1, HTN-CK2α (Homo sapiens, UniProt P68400); assay: Immunoblot of HTN-CK2α O-GlcNAcylation in HEK293T cells co-expressing fOGT
Source text: (§1) Ck2α is a well-studied OGT substrate.^17,25 Its Ser347 is conservatively O-GlcNAcylated and this modification was reported to affect its kinase activity.^16,17 We first co-expressed HTN-Ck2α and fOGT in HEK293T cells at different ratio and found the basal O-GlcNAcylation level of HTN-Ck2α was higher than what we detected in the case of HTN-BRD4. Therefore, a lower ratio of fOGT expression (1:100) was selected for the assessment of OGTAC potency (FIG. 9). […] The induction of specific O-GlcNAcylation on HTN-Ck2α was further confirmed by mass-shift assay. […] To validate the direct binding to both fOGT and HTN-Ck2α is critical, we exploited AP 1867 and rhodamine ligand, which bind to fOGT and HTN-Ck2α respectively, to co-treat with OGTAC-1.
During immunoblotting study, we noticed that even for whole cell lysate (WCL), RL2 antibody band (green) and HTN-CK2α protein band (red) are perfectly overlapped and clearly distinguishable from other bands on blot (FIG. 6B). We assessed the OGTAC treatment effects by quantifying the RL2 signal that is overlapping with HTN-Ck2α in WCL, and found they are corresponding with the results achieved by IP-WB method (FIG. 6C). Therefore, we quantify the intensity of RL2 band that overlapping with HTN-CK2α level instead of IP CK2α in later study.
For each IP reaction, 2.2×10^6 HEK293T cells were seed in 10 cm dish. After cells attached, transfection reagents and plasmids were prepared and added in DMEM. After 24 h transfection, media were replaced by fresh warm complete media with DMSO or probes. For washout study, after 4 h treatment, media with DMSO or OGTAC-4 (500 nM) were replaced by fresh media with DMSO or AP1867 (50 μM) for further incubation. After certain time of OGTACs treatment, cells were collected by cold PBS and lysed by 200 μL complete IP lysis buffer. The lysate was incubated on ice for 20 min, spun down at 14,000 RPM at 4° C. for 15 mins, and the supernatant were collected for bicinchoninic acid (BCA) assay and normalized to a final 2 mg/mL. For input, 20 μL of diluted sample was reacted with equal volume of 10 μM TMR ligand in IP lysis buffer and rotate gently at RT for 15 mins. The remaining samples were subjected to protein A/G magnetic beads (MedChemExpress, HY-K0202), which pre-binding with protein target protein antibody. For samples for LC-MS/MS or HTN-BRD4 mutant constructs. Halo-Trap Magnetic Agarose (Proteintech, otma) was used to incubate with protein lysates. After gentle rotation at 4° C. for at least 16 h, the beads were washed with IP lysis buffer and boiled in 40 μL 2×SDS-loading buffer (Biorad #1610747) for 5 mins to elute proteins from beads. Eluted samples were directly subjected into WB analysis. To get stronger signal of RL2, we used anti-mouse-HRP (Cell signaling, #7076) as secondary antibody for RL2 and anti-rabbit-DyLight 488 (Invitrogen, #35552) as secondary antibody for total target proteins.
In general, cells (from 12 well plate) were lysed by 80 μl RIPA lysis buffer (Thermo Scientic 89901) supplemented with 20 μM OGA inhibitor (Thaimet G, Bidepharm BD571819) and 100X protease inhibitor (MedChemExpress, HY-K0010), incubated on ice for 20 min, spun down at 14,000 RPM at 4° C. for 15 mins, and the supernatant were collected for bicinchoninic acid (BCA) assay and normalizedeto a final 2 mg/mL concentration. About 30 μg of protein samples were loaded for sodium dodecyl sulfatepolyacrylamide gel electrophoresis (SDS-PADE) and blotted with indicated antibodies.
Target sequence in this assay (P68400 with tags, fused parts or gaps): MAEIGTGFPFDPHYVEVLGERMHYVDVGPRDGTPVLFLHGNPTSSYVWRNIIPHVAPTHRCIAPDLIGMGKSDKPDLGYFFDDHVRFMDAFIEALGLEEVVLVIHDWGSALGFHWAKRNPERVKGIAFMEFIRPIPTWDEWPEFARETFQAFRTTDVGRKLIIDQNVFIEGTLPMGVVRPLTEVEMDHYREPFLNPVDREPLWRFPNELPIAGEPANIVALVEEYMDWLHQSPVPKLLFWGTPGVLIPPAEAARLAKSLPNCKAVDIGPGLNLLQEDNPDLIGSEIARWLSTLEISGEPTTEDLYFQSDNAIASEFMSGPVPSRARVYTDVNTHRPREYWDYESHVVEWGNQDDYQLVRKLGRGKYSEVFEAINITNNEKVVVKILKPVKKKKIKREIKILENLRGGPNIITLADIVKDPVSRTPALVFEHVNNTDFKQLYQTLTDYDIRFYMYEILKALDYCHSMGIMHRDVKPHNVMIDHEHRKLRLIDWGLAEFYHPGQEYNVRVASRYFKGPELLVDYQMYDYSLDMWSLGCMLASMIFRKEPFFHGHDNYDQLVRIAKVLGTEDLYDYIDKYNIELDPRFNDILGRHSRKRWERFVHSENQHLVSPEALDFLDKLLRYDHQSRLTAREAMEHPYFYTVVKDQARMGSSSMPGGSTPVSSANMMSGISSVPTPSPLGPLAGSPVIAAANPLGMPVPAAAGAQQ
Target sequence in this assay (P62942+O15294 fused P62942:F37V partner): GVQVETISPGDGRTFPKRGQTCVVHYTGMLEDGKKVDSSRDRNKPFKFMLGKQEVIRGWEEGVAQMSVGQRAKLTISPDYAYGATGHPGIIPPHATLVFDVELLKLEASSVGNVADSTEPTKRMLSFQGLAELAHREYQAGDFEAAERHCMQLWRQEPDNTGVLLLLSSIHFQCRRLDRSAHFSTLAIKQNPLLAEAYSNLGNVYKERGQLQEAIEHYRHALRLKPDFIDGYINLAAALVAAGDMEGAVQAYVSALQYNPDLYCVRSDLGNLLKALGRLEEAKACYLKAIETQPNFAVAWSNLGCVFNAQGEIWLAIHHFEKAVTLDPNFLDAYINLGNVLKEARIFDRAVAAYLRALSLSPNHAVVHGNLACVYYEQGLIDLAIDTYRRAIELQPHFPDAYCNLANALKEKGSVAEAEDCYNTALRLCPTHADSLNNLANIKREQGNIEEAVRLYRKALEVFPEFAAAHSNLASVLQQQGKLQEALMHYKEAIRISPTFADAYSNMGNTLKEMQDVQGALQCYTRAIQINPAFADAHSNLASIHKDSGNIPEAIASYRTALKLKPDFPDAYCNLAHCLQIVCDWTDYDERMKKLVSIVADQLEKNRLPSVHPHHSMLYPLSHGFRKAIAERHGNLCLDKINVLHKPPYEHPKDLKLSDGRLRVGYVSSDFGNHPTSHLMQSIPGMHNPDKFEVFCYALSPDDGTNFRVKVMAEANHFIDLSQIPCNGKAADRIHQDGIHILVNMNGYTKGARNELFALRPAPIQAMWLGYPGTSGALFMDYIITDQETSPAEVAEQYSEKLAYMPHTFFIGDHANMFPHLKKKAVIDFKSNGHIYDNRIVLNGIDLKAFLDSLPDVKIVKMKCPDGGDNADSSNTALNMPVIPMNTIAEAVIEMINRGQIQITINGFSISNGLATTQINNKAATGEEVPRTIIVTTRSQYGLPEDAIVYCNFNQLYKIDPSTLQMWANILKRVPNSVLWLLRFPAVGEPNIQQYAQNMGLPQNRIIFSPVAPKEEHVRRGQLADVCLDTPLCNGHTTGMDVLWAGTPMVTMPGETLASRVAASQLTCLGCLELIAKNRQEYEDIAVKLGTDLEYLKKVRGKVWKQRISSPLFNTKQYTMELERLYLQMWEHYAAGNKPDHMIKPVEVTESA

endogenous CK2α = assay: Chemoenzymatic labelling and mass-shift assay, endogenous CK2α; settings: OGTAC-1 treatment
HTN-CK2α [2] = biological target: T1, HTN-CK2α; assay: Chemoenzymatic labelling and mass-shift assay, HTN-CK2α; design: expressed in transfected cells; host or cells: HEK293T (A5, A6); HeLa (A8); settings: 1 μM
Source text: as §1
Target sequence in this assay (P68400 with tags, fused parts or gaps): as the sequence (P68400 with tags, fused parts or gaps) above
Target sequence in this assay (P62942+O15294 fused P62942:F37V partner): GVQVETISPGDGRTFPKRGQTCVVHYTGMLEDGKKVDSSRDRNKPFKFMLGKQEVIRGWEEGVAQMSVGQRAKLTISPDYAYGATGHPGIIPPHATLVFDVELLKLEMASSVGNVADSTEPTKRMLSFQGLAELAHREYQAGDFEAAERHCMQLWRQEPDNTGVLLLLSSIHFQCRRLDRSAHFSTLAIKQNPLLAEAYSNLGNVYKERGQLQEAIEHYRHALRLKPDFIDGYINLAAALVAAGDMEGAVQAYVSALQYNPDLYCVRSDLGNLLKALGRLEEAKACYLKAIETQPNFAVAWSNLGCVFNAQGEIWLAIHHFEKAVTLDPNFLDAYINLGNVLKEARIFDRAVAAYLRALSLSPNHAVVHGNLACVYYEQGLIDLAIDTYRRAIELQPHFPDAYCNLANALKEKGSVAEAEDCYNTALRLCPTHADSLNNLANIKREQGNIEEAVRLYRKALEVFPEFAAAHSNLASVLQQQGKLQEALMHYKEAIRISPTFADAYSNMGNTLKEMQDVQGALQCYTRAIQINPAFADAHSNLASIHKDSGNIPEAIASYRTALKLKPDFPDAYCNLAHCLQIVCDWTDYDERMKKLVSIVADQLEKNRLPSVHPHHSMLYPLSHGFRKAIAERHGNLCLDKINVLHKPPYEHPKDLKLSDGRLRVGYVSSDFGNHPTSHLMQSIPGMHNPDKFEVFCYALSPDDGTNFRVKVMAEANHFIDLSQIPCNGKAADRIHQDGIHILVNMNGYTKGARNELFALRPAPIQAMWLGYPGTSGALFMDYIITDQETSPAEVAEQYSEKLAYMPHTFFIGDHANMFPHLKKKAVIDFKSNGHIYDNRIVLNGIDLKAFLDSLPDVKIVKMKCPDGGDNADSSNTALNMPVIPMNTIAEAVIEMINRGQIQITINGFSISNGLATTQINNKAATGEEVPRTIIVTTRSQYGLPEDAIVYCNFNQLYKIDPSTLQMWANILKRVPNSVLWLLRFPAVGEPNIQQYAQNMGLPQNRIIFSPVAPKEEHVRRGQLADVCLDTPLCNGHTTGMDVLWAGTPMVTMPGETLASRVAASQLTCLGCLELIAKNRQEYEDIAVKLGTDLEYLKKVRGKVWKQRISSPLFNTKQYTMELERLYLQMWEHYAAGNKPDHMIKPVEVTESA
For each chemoenzymatic labelling reaction. 2×10^5 HEK293T cells were seed to each well of 6 well plate. After cells attached, transfection reagents and plasmids were prepared and added in DMEM. After 24 h transfection, media were replaced by fresh warm complete media with DMSO or probes. […] The supernatant of lysate was then quantified by bicinchoninic acid (BCA) assay and normalized to 2 mg/mL with 1% SDS in buffer. […]

time at which induction of HTN-CK2α O-GlcNAcylation happened (HTN-CK2α [1]; 250 nM): ≤ 4 h | time of peak induction of HTN-CK2α O-GlcNAcylation (HTN-CK2α [1]; 250 nM): 8 h | fold increase of O-GlcNAcylation on HTN-CK2α, whole cell lysate WB (HTN-CK2α [1]; 500 nM and 1 μM): higher fold increase of O-GlcNAcylation | concentration of peak induction of HTN-CK2α O-GlcNAcylation (HTN-CK2α [1]; 24 h treatment): 1 µM | HTN-CK2α O-GlcNAcylation inducing effect among OGTAC-1/2/3 (HTN-CK2α [1]; IP-WB, fOGT ratio 1:100): prevailed among 3 OGTACs | HTN-CK2α O-GlcNAcylation in mass-shift assay (HTN-CK2α [2]): increased HTN-CK2α O-GlcNAcylation
Structure (SMILES): CC[C@H](C(=O)N1CCCC[C@H]1C(=O)O[C@H](CCc1ccc(OC)c(OC)c1)c1cccc(OCC(=O)NCCOCCOCCCCCCCl)c1)c1cc(OC)c(OC)c(OC)c1 [OGTAC-1, (R)-1-(3-(2-((2-(2-((6-chlorohexyl)oxy)ethoxy)ethyl)amino)-2-oxoethoxy)phenyl)-3-(3,4-dimethoxyphenyl)propyl (S)-1-((S)-2-(3,4,5-trimethoxyphenyl)butanoyl) piperidine-2-carboxylate]
O-GlcNAcylation level of endogenous CK2α (endogenous CK2α): did not alter
